Test results reported in US8633186B2, “Modulation of chemosensory receptors and ligands associated therewith” (Senomyx Inc., priority 2007, dated 2014).

How the values were obtained:
[1] = test system: human panelists (perceived sweetness intensity); assay: Sweet flavor and sweet flavor enhancement, human panelists, scaling test; assay type: in vivo; design: key: 0-15 line scale; 0 = no sweetness, 15 = 15% sucrose sweetness
Text: Test samples containing experimental compounds were compared to a dose-response curve for perceived sweetness intensity of sweeteners (such as, for example, sucralose, sucrose, fructose and other sweeteners) concentrations to determine equivalent sweetness intensity.
A group of eight or more panelists tasted solutions including sweeteners at various concentrations, as well as the experimental compound both with and without added sweetener. Panelists then rated sweetness intensity of all samples on a structured horizontal line scale, anchored from 0 to 15, where 0 equals no sweetness and 15 equals equivalent sweetness to a 15% sucrose sample. Scores for sweetness intensity were averaged across panelists. Then using the average scores and/or equation of the line for the sweetener dose-response curve, equivalent sweetness concentrations were determined for the samples containing experimental compounds.
Subjects had been previously familiarized with the key attribute taste and were trained to use the 0 to 15 point line scale. Subjects refrained from eating or drinking (except water) for at least 1 hour prior to the test. Subjects ate a cracker and rinsed with water several times to clean the mouth.
Sweetener solutions are provided at a wide range of concentrations such as 100 ppm, 200 ppm, 300 ppm, 400 ppm, and 500 ppm for sucralose, or between 0% and 12% for sucrose or fructose, in order to create a dose-response curve. Samples containing experimental compound were prepared both alone and in a 100 ppm sucralose solution or a 6% sucrose or fructose solution. All samples were made up in low sodium buffer pH 7.1. In order to aid dispersion, solutions can be made up in 0.1% ethanol.
The solutions were dispensed in 20 ml volumes into 1 oz. sample cups and served to the subjects at room temperature. All samples were presented in randomized counterbalanced order to reduce response bias. Further, two sessions of testing may be used to check panel precision.
Subjects tasted each sample individually and rate sweetness intensity on the line scale prior to tasting the next sample. All samples were expectorated. Subjects may retaste the samples but can only use the volume of sample given. Subjects must rinse with water between samples. Eating an unsalted cracker between samples may be required depending on the samples tasted.
The scores for each sample were averaged across subjects and standard error was calculated. The dose-response curve was plotted graphically, and this may be used to ensure the panel is rating accurately; i.e., increasing the concentration of sucralose should correspond to increased average scores for sweetness. A 2-way ANOVA (factors being samples and panelists) and multiple comparison tests (such as Tukey's Honestly Significant Difference test) can be used to determine differences among samples and/or panelists. A 3-way ANOVA, with sessions as the third factor, can be used to determine if there is any difference in the ratings between sessions.

CC(C)=Cc1c(F)ccc2c1C(N)=NS(=O)(=O)N2 [Example 134, 4-Amino-6-fluoro-5-(2-methylprop-1-enyl)-1H-benzo[c][1,2,3]thiadiazine-2,2-dioxide]
melting point: > 250 °C

O=C(NC1CCCCC1)c1c(O)c2ccccc2[nH]c1=O [Example 73, N-cyclohexyl-4-hydroxy-2-oxo-1,2-dihydroquinoline-3-carboxamide]
melting point: 221 °C

CCCOc1cccc2c1C(N)=NS(=O)(=O)N2 [Example 111, 4-Amino-5-(propyloxy)-1H-benzo[c][1,2,6]thiadiazine-2,2-dioxide]
melting point: 229 to 230 °C

COC(=O)c1c(N)c2ccccc2[nH]c1=O [Example 68, Methyl 4-amino-2-oxo-1,2-dihydroquinoline-3-carboxylate]
melting point: 236 °C

OC[C@H]1O[C@H](O[C@]2(CCl)O[C@H](CCl)[C@@H](O)[C@@H]2O)[C@H](O)[C@@H](O)[C@H]1Cl [Sucralose, sucralose]
Average sweetness score (line scale 0 to 15) ([1]; Table 1, 100 ppm sucralose alone): 6.3 | Average sweetness score (line scale 0 to 15) ([1]; Table 1, 200 ppm sucralose alone): 10.4 | Average sweetness score (line scale 0 to 15) ([1]; Table 1, 300 ppm sucralose alone): 11.5 | Average sweetness score (line scale 0 to 15) ([1]; Table 1, 400 ppm sucralose alone): 12.3 | Average sweetness score (line scale 0 to 15) ([1]; Table 3, 100 ppm sucralose alone): 7.4 | Average sweetness score (line scale 0 to 15) ([1]; Table 3, 200 ppm sucralose alone): 10.4 | Average sweetness score (line scale 0 to 15) ([1]; Table 3, 300 ppm sucralose alone): 10.5 | Average sweetness score (line scale 0 to 15) ([1]; Table 3, 400 ppm sucralose alone): 11.2 | Average sweetness score (line scale 0 to 15) ([1]; Table 3, 600 ppm sucralose alone): 13.0 | Average sweetness score (line scale 0 to 15) ([1]; Table 4, 100 ppm sucralose alone): 6.3 | Average sweetness score (line scale 0 to 15) ([1]; Table 4, 200 ppm sucralose alone): 9.5 | Average sweetness score (line scale 0 to 15) ([1]; Table 4, 300 ppm sucralose alone): 10.3 | Average sweetness score (line scale 0 to 15) ([1]; Table 4, 400 ppm sucralose alone): 12.1 | Average sweetness score (line scale 0 to 15) ([1]; Table 6, 100 ppm sucralose alone): 6.5 | Average sweetness score (line scale 0 to 15) ([1]; Table 6, 200 ppm sucralose alone): 9.1 | Average sweetness score (line scale 0 to 15) ([1]; Table 6, 300 ppm sucralose alone): 10.8 | Average sweetness score (line scale 0 to 15) ([1]; Table 6, 400 ppm sucralose alone): 11.2 | Average sweetness score (line scale 0 to 15) ([1]; Table 17, 100 ppm sucralose alone): 6.5 | Average sweetness score (line scale 0 to 15) ([1]; Table 17, 200 ppm sucralose alone): 9.0 | Average sweetness score (line scale 0 to 15) ([1]; Table 17, 300 ppm sucralose alone): 10.9 | Average sweetness score (line scale 0 to 15) ([1]; Table 17, 400 ppm sucralose alone): 12.3 | Average Sweetness ([1]; Table 28, 50 ppm sucralose alone, n = 28): 4.3 | Average Sweetness ([1]; Table 28, 100 ppm sucralose alone, n = 28): 6.2 | Average Sweetness ([1]; Table 28, 150 ppm sucralose alone, n = 28): 8.2 | Average Sweetness ([1]; Table 28, 200 ppm sucralose alone, n = 28): 8.9 | Average Sweetness ([1]; Table 28, 300 ppm sucralose alone, n = 28): 10.3

N#Cc1c(Cl)c2ccccc2[nH]c1=O [Example 72, 4-chloro-2-oxo-1,2-dihydroquinoline-3-carbonitrile]
melting point: > 250 °C

OC[C@H]1O[C@@](CO)(O[C@H]2O[C@H](CO)[C@@H](O)[C@H](O)[C@H]2O)[C@@H](O)[C@@H]1O [Sucrose, sucrose]
Average sweetness score (line scale 0 to 15) ([1]; Table 5, 2% sucrose alone): 2.4 | Average sweetness score (line scale 0 to 15) ([1]; Table 7, 2% sucrose alone): 1.8 | Average sweetness score (line scale 0 to 15) ([1]; Table 8, 6% sucrose alone): 6.6 | Average sweetness score (line scale 0 to 15) ([1]; Table 8, 8% sucrose alone): 8.1 | Average sweetness score (line scale 0 to 15) ([1]; Table 8, 9% sucrose alone): 8.6 | Average sweetness score (line scale 0 to 15) ([1]; Table 8, 10% sucrose alone): 9.6 | Average sweetness score (line scale 0 to 15) ([1]; Table 9, 2% sucrose alone): 2.2 | Average sweetness score (line scale 0 to 15) ([1]; Table 9, 4% sucrose alone): 4.0 | Average sweetness score (line scale 0 to 15) ([1]; Table 9, 6% sucrose alone): 5.5 | Average sweetness score (line scale 0 to 15) ([1]; Table 10, 6% sucrose alone): 7.3 | Average sweetness score (line scale 0 to 15) ([1]; Table 10, 8% sucrose alone): 7.9 | Average sweetness score (line scale 0 to 15) ([1]; Table 10, 9% sucrose alone): 8.6 | Average sweetness score (line scale 0 to 15) ([1]; Table 10, 10% sucrose alone): 9.6 | Average sweetness score (line scale 0 to 15) ([1]; Table 11, 2% sucrose alone): 2.1 | Average sweetness score (line scale 0 to 15) ([1]; Table 11, 4% sucrose alone): 3.9 | Average sweetness score (line scale 0 to 15) ([1]; Table 11, 6% sucrose alone): 5.7 | Average sweetness score (line scale 0 to 15) ([1]; Table 12, 6% sucrose alone): 6.8 | Average sweetness score (line scale 0 to 15) ([1]; Table 12, 8% sucrose alone): 8.3 | Average sweetness score (line scale 0 to 15) ([1]; Table 12, 9% sucrose alone): 8.6 | Average sweetness score (line scale 0 to 15) ([1]; Table 12, 10% sucrose alone): 9.5 | Average sweetness score (line scale 0 to 15) ([1]; Table 13, 2% sucrose alone): 1.9 | Average sweetness score (line scale 0 to 15) ([1]; Table 13, 4% sucrose alone): 3.9 | Average sweetness score (line scale 0 to 15) ([1]; Table 13, 6% sucrose alone): 5.5 | Average sweetness score (line scale 0 to 15) ([1]; Table 14, 6% sucrose alone): 6.5 | Average sweetness score (line scale 0 to 15) ([1]; Table 14, 8% sucrose alone): 8.5 | Average sweetness score (line scale 0 to 15) ([1]; Table 14, 9% sucrose alone): 8.7 | Average sweetness score (line scale 0 to 15) ([1]; Table 14, 10% sucrose alone): 9.7 | Average sweetness score (line scale 0 to 15) ([1]; Table 15, 6% sucrose alone): 7.0 | Average sweetness score (line scale 0 to 15) ([1]; Table 15, 8% sucrose alone): 8.4 | Average sweetness score (line scale 0 to 15) ([1]; Table 15, 9% sucrose alone): 9.0 | Average sweetness score (line scale 0 to 15) ([1]; Table 15, 10% sucrose alone): 9.1 | Average sweetness score (line scale 0 to 15) ([1]; Table 16, 2% sucrose alone): 2.0 | Average sweetness score (line scale 0 to 15) ([1]; Table 16, 4% sucrose alone): 4.1 | Average sweetness score (line scale 0 to 15) ([1]; Table 16, 6% sucrose alone): 5.7 | Average sweetness score (line scale 0 to 15) ([1]; Table 18, 2% sucrose alone): 2.4 | Average sweetness score (line scale 0 to 15) ([1]; Table 18, 4% sucrose alone): 4.2 | Average sweetness score (line scale 0 to 15) ([1]; Table 18, 6% sucrose alone): 5.9 | Average sweetness score (line scale 0 to 15) ([1]; Table 19, 6% sucrose alone): 7.3 | Average sweetness score (line scale 0 to 15) ([1]; Table 19, 8% sucrose alone): 8.6 | Average sweetness score (line scale 0 to 15) ([1]; Table 19, 9% sucrose alone): 9.1 | Average sweetness score (line scale 0 to 15) ([1]; Table 19, 10% sucrose alone): 9.7 | Average sweetness score (line scale 0 to 15) ([1]; Table 20, 2% sucrose alone): 8.6 | Average sweetness score (line scale 0 to 15) ([1]; Table 20, 4% sucrose alone): 9.1 | Average sweetness score (line scale 0 to 15) ([1]; Table 20, 6% sucrose alone): 9.7 | Average sweetness score (line scale 0 to 15) ([1]; Table 21, 6% sucrose alone): 6.5 | Average sweetness score (line scale 0 to 15) ([1]; Table 21, 8% sucrose alone): 8.3 | Average sweetness score (line scale 0 to 15) ([1]; Table 21, 9% sucrose alone): 9.4 | Average sweetness score (line scale 0 to 15) ([1]; Table 21, 10% sucrose alone): 9.4 | Average sweetness score (line scale 0 to 15) ([1]; Table 22, 6% sucrose alone): 6.5 | Average sweetness score (line scale 0 to 15) ([1]; Table 22, 8% sucrose alone): 8.2 | Average sweetness score (line scale 0 to 15) ([1]; Table 22, 9% sucrose alone): 9.2 | Average sweetness score (line scale 0 to 15) ([1]; Table 22, 10% sucrose alone): 9.4 | Average sweetness score (line scale 0 to 15) ([1]; Table 23, 6% sucrose alone): 6.8 | Average sweetness score (line scale 0 to 15) ([1]; Table 23, 8% sucrose alone): 8.7 | Average sweetness score (line scale 0 to 15) ([1]; Table 23, 9% sucrose alone): 9.5 | Average sweetness score (line scale 0 to 15) ([1]; Table 23, 10% sucrose alone): 9.5 | Average sweetness score (line scale 0 to 15) ([1]; Table 24, 6% sucrose alone): 6.5 | Average sweetness score (line scale 0 to 15) ([1]; Table 24, 8% sucrose alone): 8.4 | Average sweetness score (line scale 0 to 15) ([1]; Table 24, 9% sucrose alone): 9.2 | Average sweetness score (line scale 0 to 15) ([1]; Table 24, 10% sucrose alone): 9.4 | Average sweetness score (line scale 0 to 15) ([1]; Table 25, 6% sucrose alone): 6.7 | Average sweetness score (line scale 0 to 15) ([1]; Table 25, 8% sucrose alone): 8.1 | Average sweetness score (line scale 0 to 15) ([1]; Table 25, 9% sucrose alone): 9.3 | Average sweetness score (line scale 0 to 15) ([1]; Table 25, 10% sucrose alone): 9.2 | Average Sweetness ([1]; Table 26, 6% Sucrose alone, n = 24): 6.2 | Average Sweetness ([1]; Table 26, 8% Sucrose alone, n = 24): 8.3 | Average Sweetness ([1]; Table 26, 9% Sucrose alone, n = 24): 9.3 | Average Sweetness ([1]; Table 26, 10% Sucrose alone, n = 24): 9.8 | Average Sweetness ([1]; Table 26, 12% Sucrose alone, n = 24): 11.1 | Average Sweetness ([1]; Table 27, 6% Sucrose alone, n = 30): 6.7 | Average Sweetness ([1]; Table 27, 8% Sucrose alone, n = 30): 8.3 | Average Sweetness ([1]; Table 27, 10% Sucrose alone, n = 30): 10.3 | Average Sweetness ([1]; Table 27, 12% Sucrose alone, n = 30): 11.2 | Average Sweetness ([1]; Table 30, 2% Sucrose alone, n = 30): 2.3 | Average Sweetness ([1]; Table 30, 4% Sucrose alone, n = 30): 4.2 | Average Sweetness ([1]; Table 30, 6% Sucrose alone, n = 30): 5.8 | Average Sweetness ([1]; Table 31, 6% Sucrose alone, n = 28): 6.8 | Average Sweetness ([1]; Table 31, 8% Sucrose alone, n = 28): 8.5 | Average Sweetness ([1]; Table 31, 9% Sucrose alone, n = 28): 8.6 | Average Sweetness ([1]; Table 31, 10% Sucrose alone, n = 28): 9.6 | Average Sweetness ([1]; Table 32, 2% Sucrose alone, n = 28): 2.3 | Average Sweetness ([1]; Table 32, 4% Sucrose alone, n = 28): 4.5 | Average Sweetness ([1]; Table 32, 6% Sucrose alone, n = 28): 5.8

CCc1sc2[nH]c(=O)nc(N)c2c1C [Example 7, 4-Amino-6-ethyl-5-methylthieno[2,3-d]pyrimidin-2(1H)-one]
Average sweetness score (line scale 0 to 15) ([1]; Table 2, 100 μM compound alone in low sodium buffer): 0.1
